Measured values reported in article PMC5332298 (Nature cell biology, 2017).
Read-outs that look alike come from different tables or passages of the source.

Assays:
LINK-A-PIP3 interaction [1] = assay: RNA-lipid vesicles; type: binding; details: 100:1 molar ratio to PIP3
LINK-A-PIP3 interaction [2] = assay: RNA-lipid overlay assay on PIP arrays with soluble competitors; type: binding; details: 100:1 molar ratio to RNA
[3] = system: LINK-A-PIP3 interaction in MDA-MB-231 cells; assay: RIP assay using a PIP3 antibody; details: MDA-MB-231 cells treated with PI3K inhibitor
AKT-PIP3 binding = AKT-PIP3 binding (Homo sapiens, UniProt P31749); assay: biochemical
Sequence of AKT-PIP3 binding (P31749 whole entry): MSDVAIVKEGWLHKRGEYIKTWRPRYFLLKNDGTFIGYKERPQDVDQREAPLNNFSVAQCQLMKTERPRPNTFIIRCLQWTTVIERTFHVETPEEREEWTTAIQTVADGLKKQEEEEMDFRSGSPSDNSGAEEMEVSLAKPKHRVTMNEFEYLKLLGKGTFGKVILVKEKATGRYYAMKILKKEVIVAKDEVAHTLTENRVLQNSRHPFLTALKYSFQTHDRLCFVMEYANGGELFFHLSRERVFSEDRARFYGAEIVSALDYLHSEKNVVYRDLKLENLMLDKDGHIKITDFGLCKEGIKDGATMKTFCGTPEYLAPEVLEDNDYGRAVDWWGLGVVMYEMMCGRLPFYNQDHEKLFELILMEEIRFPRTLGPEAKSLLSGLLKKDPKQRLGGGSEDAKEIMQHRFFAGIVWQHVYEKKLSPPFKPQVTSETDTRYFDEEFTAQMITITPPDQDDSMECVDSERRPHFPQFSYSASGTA

MDA-MB-231 spheroids [4] = assay: 3-D spheroid fluorometric proliferation/viability assay; type: cell-based, Human; details: for proliferation (growth) of spheroids: 50 nM MK2206 or 25 nM perifosine, 4 days
MDA-MB-231 spheroids [5] = assay: 3D spheroid BME cell invasion assay; type: cell-based, Human; details: 50 nM MK2206 or 25 nM perifosine, 4 days
[6] = system: MS2-LINK-A-PIP3 interaction in MDA-MB-231 cells; assay: MS2-TRAP assay with PIP3 mass ELISA; type: cell-based, Human; details: cell permeable competitor 100 µM, 2 hrs
[7] = molecular target: AKT (His6-tagged recombinant, ThermoFisher) (UniProt P31749 1-480); assay: Alpha competition assay
Sequence of AKT (His6-tagged recombinant, ThermoFisher) (P31749 whole entry): as above

`O=P(O)(O)OC1[C@H](O)[C@H](OP(=O)(O)O)C(OP(=O)(O)O)[C@H](OP(=O)(O)O)[C@H]1O` (stereo partly drawn) [IP4, D-myo-Inositol 1,3,4,5-tetrakisphosphate] was tested, and the “effect of competitor on recruitment of LINK-A ΔPC to PIP3-containing GUVs” value (LINK-A-PIP3 interaction [1]) was “abolished” and the “effect of soluble competitor on LINK-A binding to PIP array” value (LINK-A-PIP3 interaction [2]) was “abolished”.

With `O=c1cc(N2CCOCC2)oc2c(-c3ccccc3)cccc12` [LY294002] the “LINK-A-PIP3 interaction in vivo (RIP with PIP3 antibody)” value [3] was “abolished”.

With `NC1(c2ccc(-c3nc4ccn5c(=O)[nH]nc5c4cc3-c3ccccc3)cc2)CCC1` [MK2206] the “antagonism of the inhibitory effect by FL LINK-A” value (AKT-PIP3 binding; in vitro, presence of FL LINK-A) was 753 fold, the “proliferation (growth) of spheroids” value (MDA-MB-231 spheroids [4]; LINK-A PIP3-BM−/− spheroids) was “efficiently inhibited” and the “proliferation (growth) of spheroids” value (MDA-MB-231 spheroids [4]; LINK-A PIP3BM+/+ spheroids) was “undetectable effect”. For the same molecule, the invasion of spheroids (MDA-MB-231 spheroids [5]; LINK-A PIP3-BM−/− spheroids) was “efficiently inhibited” and the invasion of spheroids (MDA-MB-231 spheroids [5]; LINK-A PIP3BM+/+ spheroids) was “undetectable effect”.

`O=P(O)(O)OC1[C@@H](OP(=O)(O)O)[C@H](OP(=O)(O)O)C(O)[C@H](OP(=O)(O)O)[C@H]1OP(=O)(O)O` (stereo partly drawn) [PI(1,3,4,5,6)P5] was tested, and the “MS2-LINK-A-associated PIP3 (PIP3 mass ELISA)” value [6] was “impaired”.

`CCCCCCCCCCCCCCCCCCOP(=O)([O-])OC1CC[N+](C)(C)CC1` [perifosine] was tested, and the “antagonism of the inhibitory effect by FL LINK-A” value (AKT-PIP3 binding) was 140 fold, the IC50 (AKT-PIP3 binding; IC50 for inhibiting AKT-PIP3 binding) was 4.8 µM and the “proliferation (growth) of spheroids” value (MDA-MB-231 spheroids [4]; LINK-A PIP3-BM−/− spheroids) was “efficiently inhibited”. The “proliferation (growth) of spheroids” value (MDA-MB-231 spheroids [4]; LINK-A PIP3BM+/+ spheroids) was “undetectable effect”, the “sensitization of LINK-A PIP3-BM−/− spheroids vs PIP3-BM+/+” value (MDA-MB-231 spheroids [4]; spheroid viability IC50) was “about 20,000 fold” and the invasion of spheroids (MDA-MB-231 spheroids [5]; LINK-A PIP3-BM−/− spheroids) was “efficiently inhibited”. The invasion of spheroids (MDA-MB-231 spheroids [5]; LINK-A PIP3BM+/+ spheroids) was “undetectable effect”.

For “Phosphatidylinositol-3,4,5-trisphosphate [PIP3]”, the “effect of soluble competitor on LINK-A binding to PIP array” value (LINK-A-PIP3 interaction [2]) was “abolished”.

CAGGGUAGACUCGCUCUG (structured_RNA) [LINK-A nt 1100-1117 WT]: binds [7].
